Test results from US10174037B2, “Dihydropyrazolopyrimidinone compounds as PDE2 inhibitors” (Merck Sharp & Dohme Corp., priority 2015, dated 2019).

Target: human PDE2A1 (Homo sapiens (Human), UniProt O00408)
Assay: PDE selectivity IMAP FP assay, human PDE2A1
Assay type: biochemical
Details: Human PDE2; Lab B; read-out: Human PDE2 Ki (nM) Lab B
Summary of the method: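 IMAP fluorescence polarization assay; PDE2 substrate 50 nM FAM-cAMP containing 1000 nM cGMP, enzyme diluted for 20% substrate conversion, in 10 mM Tris HCl pH 7.2, 10 mM MgCl2, 1 mM DTT. Reaction 60 min at room temperature, stopped with IMAP binding solution; polarization read after 1 h. Ki reported.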

Sequence of human PDE2A1 (O00408 other isoform, or with tags, fused parts or gaps): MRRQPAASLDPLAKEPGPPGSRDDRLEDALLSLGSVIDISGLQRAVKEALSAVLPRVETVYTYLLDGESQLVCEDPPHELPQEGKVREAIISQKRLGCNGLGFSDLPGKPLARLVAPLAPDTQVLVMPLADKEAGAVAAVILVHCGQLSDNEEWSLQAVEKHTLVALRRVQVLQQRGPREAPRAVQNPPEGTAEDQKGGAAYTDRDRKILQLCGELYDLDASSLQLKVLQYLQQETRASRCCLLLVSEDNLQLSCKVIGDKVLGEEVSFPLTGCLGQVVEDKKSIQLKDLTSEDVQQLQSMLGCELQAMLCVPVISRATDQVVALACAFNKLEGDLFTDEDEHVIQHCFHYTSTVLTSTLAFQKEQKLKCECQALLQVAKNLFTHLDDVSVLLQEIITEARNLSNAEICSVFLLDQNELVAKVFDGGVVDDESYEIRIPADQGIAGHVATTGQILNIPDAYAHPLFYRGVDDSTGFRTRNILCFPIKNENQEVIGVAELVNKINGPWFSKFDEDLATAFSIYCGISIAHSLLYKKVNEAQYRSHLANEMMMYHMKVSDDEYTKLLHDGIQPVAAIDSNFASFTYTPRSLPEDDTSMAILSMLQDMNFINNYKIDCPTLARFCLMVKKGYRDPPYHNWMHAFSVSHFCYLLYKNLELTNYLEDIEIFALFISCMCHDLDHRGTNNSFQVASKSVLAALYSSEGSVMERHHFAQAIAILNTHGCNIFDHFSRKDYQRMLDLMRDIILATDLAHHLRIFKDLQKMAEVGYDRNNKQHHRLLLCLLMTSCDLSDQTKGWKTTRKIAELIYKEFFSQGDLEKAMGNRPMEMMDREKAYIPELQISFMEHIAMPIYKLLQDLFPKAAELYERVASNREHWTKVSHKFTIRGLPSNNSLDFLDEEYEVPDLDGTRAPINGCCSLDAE

Ki [nM]	SMILES
8	CC(c1ccc(C(C)(F)F)cc1F)n1nc(CO)c2c(=O)[nH]c(N(C)C)nc21 (single isomer, unassigned) [Example 109, (S)- or (R)-1-(1-(4-(1,1-Difluoroethyl)-2-fluorophenyl)ethyl)-6-(dimethylamino)-3-(hydroxymethyl)-1H-pyrazolo[3,4-d]pyrimidin-4(5H)-one]
35	CC(c1ccc(C(F)F)cc1)n1nc(CO)c2c(=O)[nH]c(N(C)C)nc21 (single isomer, unassigned) [Example 82, (R)- or (S)-1-(1-(4-(Difluoromethyl)phenyl)ethyl)-6-(dimethylarnino)-3-(hydroxymethyl)-1H-pyrazolo[3,4-d]pyrimidin-4(5H)-one]
12	C[C@@H](c1ccc(C(F)(F)F)cc1)n1nc(CO)c2c(=O)[nH]c(N)nc21 [Example 157, 6-Amino-3-(hydroxymethyl)-1-{(1S)-1-[4-(trifluoromethyl)phenyl]ethyl}-1,5-dihydro-4H-pyrazolo[3,4-d]pyrimidin-4-one]
4	CCC(c1ccc(C(F)F)cc1F)n1nc(CF)c2c(=O)[nH]c(N(C)C)nc21 (single isomer, unassigned) [Example 349, (S)- or (R)-1-(1-(4-(difluoromethyl)-2-fluorophenyl)propyl)-6-(dimethylamino)-3-(fluoromethyl)-1H-pyrazolo[3,4-d]pyrimidin-4(5H)-one]
0.31	CCC(c1ccc(CC(F)(F)F)cc1)n1nc(CO)c2c(=O)[nH]c(N(C)C)nc21 (single isomer, unassigned) [Example 99, (S)- or (R)-6-(Dimethyiamino)-3-(hydroxymethyl)-1-(1-(4-(2,2,2-trifluoroethyl)phenyl)propyl)-1H-pyrazolo[3,4-d]pyrimidin-4(5H)-one]
105	CC[C@@H](O)c1nn([C@@H](C)c2ccc(C(F)(F)F)cc2)c2nc(O)[nH]c(=O)c12 (mixture of isomers) [Example 294, (R,S)- and (R,R)- and (S,S)- and (S,R)-6-Hydroxy-3-(1-hydroxypropyl)-1-(1-(4-(trifluoromethyl)phenyl)ethyl)-1H-pyrazolo[3,4-d]pyrimidin-4(5H)-one]
0.25	CC(c1ccc(C(C)(C)C)cc1)n1nc(CO)c2c(=O)[nH]c(N(C)C)nc21 (single isomer, unassigned) [Example 67, (S)- or (R)-1-(1-(4-tert-Butylphenyl)ethyl)-6-(dimethylamino)-3-(hydroxymethyl)-1H-pyrazolo[3,4-d]pyrimidin-4(5H)-one]
3.7	CCOc1nc2c(c(CO)nn2[C@@H](C)c2ccc(C(F)(F)F)cc2)c(=O)[nH]1 [compound 302, 6-Ethoxy-3-(hydroxymethyl)-1-{(1S)-1-[4-(trifluoromethyl)phenyl]ethyl}-1,5-dihydro-4H-pyrazolo[3,4-d]pyrimidin-4-one]
416	CC(c1ccc(C2CC2)cc1)n1nc(C(F)F)c2c(=O)[nH]c(O)nc21 (single isomer, unassigned) [Example 275, (R)- or (S)-1-(1-(4-Cyclopropylphenyl)ethyl)-3-(difluoromethyl)-6-hydroxy-1H-pyrazolo[3,4-d]pyrimidin-4(5H)-one]
6.5	CCC(c1ccc(C(F)F)cc1)n1nc(CF)c2c(=O)[nH]c(N(C)C)nc21 (single isomer, unassigned) [Example 346, (R)- or (S)-1-(1-(4-(Difluoromethyl)phenyl)propyl)-6-(dimethylamino)-3-(fluoromethyl)-1H-pyrazolo[3,4-d]pyrimidin-4(5H)-one]
265	CC(c1ccc(S(F)(F)(F)(F)F)cc1)n1nc(C(F)(F)F)c2c(=O)[nH]c(O)nc21 (single isomer, unassigned) [Example 312, (S)- or (R)-6-Hydroxy-1-{1-[4-(pentafluoro-lambda~6-sulfanyl)phenyl]ethyl}-3-(trifluoromethyl)-1,5-dihydro-4H-pyrazolo[3,4-d]pyrimidin-4-one]
408	CC(C)(C)C(c1ccc(C(F)(F)F)c(F)c1)n1nc(CC(F)(F)F)c2c(=O)[nH]c(O)nc21 (single isomer, unassigned) [Example 246, (R)- or (S)-1-(1-(3-Fluoro-4-(trifluoromethyl)phenyl)-2,2-dimethylpropyl)-6-hydroxy-3-(2,2,2-trifluoroethyl)-1H-pyrazolo[3,4-d]pyrimidin-4(5H)-one]
106	CC(c1ccc(C(F)(F)F)c(F)c1)n1nc(C(F)(F)F)c2c(=O)[nH]c(O)nc21 (single isomer, unassigned) [Example 314, (S)- or (R)-1-{1-[3-Fluoro-4-(trifluoromethyl)phenyl]ethyl}-6-hydroxy-3-(trifluoromethyl)-1,5-dihydro-4H-pyrazolo[3,4-d]pyrimidin-4-one]
40	CC(c1ccc(C(F)F)c(F)c1)n1nc(CO)c2c(=O)[nH]c(N(C)C)nc21 (single isomer, unassigned) [Example 104, (R)- or (S)-1-(1-(4-(Difluoromethyl)-3-fluorophenyl)ethyl)-6-(dimethylamino)-3-(hydroxymethyl)-1H-pyrazolo[3,4-d]pyrimidin-4(5H)-one]
25	CC(c1ccc(C(F)(F)F)cc1F)n1nc(CO)c2c(=O)[nH]c(N(C)C)nc21 (single isomer, unassigned) [Example 80, (R)- or (S)-6-(Dimethylamino)-1-(1-(2-fluoro-4-(trifluoromethyl)phenyl)ethyl)-3-(hydroxymethyl)-1H-pyrazolo[3,4-d]pyrimidin-4(5H)-one]
16	CC(c1ccc(OC(F)F)c(Cl)c1)n1nc(C(F)(F)F)c2c(=O)[nH]c(O)nc21 (single isomer, unassigned) [Example 326, (S)- or (R)-1-(1-(3-Chloro-4-(difluoromethoxy)phenyl)ethyl)-6-hydroxy-3-(trifluoromethyl)-1H-pyrazolo[3,4-d]pyrimidin-4(5H)-one]
168	CC[C@@H](O)c1nn([C@@H](C)c2ccc(C(F)(F)F)cc2)c2nc(O)[nH]c(=O)c12 (mixture of isomers) [Example 295, (R,S)- and (R,R)- and (S,S)- and (S,R)-6-Hydroxy-3-(1-hydroxypropyl)-1-(1-(4-(trifluoromethyl)phenyl)ethyl)-1H-pyrazolo[3,4-d]pyrimidin-4(5H)-one]
1.4	CCC(c1ccc(C(C)(F)F)cc1)n1nc(CF)c2c(=O)[nH]c(N(C)C)nc21 (single isomer, unassigned) [Example 204, (R)- or (S)-1-(1-(4-(1,1-Difluoroethyl)phenyl)propyl)-6-(dimethylamino)-3-(fluoromethyl)-1H-pyrazolo[3,4-d]pyrimidin-4(5H)-one]
8.4	CCC(c1ccc(C(F)F)cc1)n1nc(CO)c2c(=O)[nH]c(N(C)C)nc21 (single isomer, unassigned) [Example 92, (R)- or (S)-1-(1-(4-(Difluoromethyl)phenyl)propyl)-6-(dimethylamino)-3-(hydroxymethyl)-1H-pyrazolo[3,4-d]pyrimidin-4(5H)-one]
1.7	CCC(c1ccc(OC(F)F)cc1F)n1nc(CF)c2c(=O)[nH]c(N(C)C)nc21 (single isomer, unassigned) [Example 343, (S)- or (R)-1-(1-(4-(Difluoromethoxy)-2-fluorophenyl)propyl)-6-(dimethylamino)-3-(fluoromethyl)-1H-pyrazolo[3,4-d]pyrimidin-4(5H)-one]
20	CC(c1ccc(C(C)(F)F)cc1F)n1nc(CF)c2c(=O)[nH]c(N(C)C)nc21 (single isomer, unassigned) [Example 208, (R)- or (S)-1-(1-(4-(1,1-Difluoroethyl)-2-fluorophenyl)ethyl)-6-(dimethylamino)-3-(fluoromethyl)-1H-pyrazolo[3,4-d]pyrimidin-4(5H)-one]
2.4	CCC(c1ccc(OC(F)F)cc1)n1nc(CO)c2c(=O)[nH]c(N(C)C)nc21 (single isomer, unassigned) [Example 125, (S)- or (R)-1-(1-(4-(Difluoromethoxy)phenyl)propyl)-6-(dimethylamino)-3-(hydroxymethyl)-1H-pyrazolo[3,4-d]pyrimidin-4(5H)-one]
3	CN(C)c1nc2c(c(CO)nn2C(c2ccc(C(F)F)c(F)c2)C2CC2)c(=O)[nH]1 (single isomer, unassigned) [Example 153, (S)- or (R)-1-(Cyclopropyl(4-(difluoromethyl)-3-fluorophenyl)methyl)-6-(dimethylamino)-3-(hydroxymethyl)-1H-pyrazolo[3,4-d]pyrimidin-4(5H)-one]
18	CC(c1ccc(C(F)F)c(F)c1)n1nc(CF)c2c(=O)[nH]c(N(C)C)nc21 (single isomer, unassigned) [Example 197, (S)- or (R)-1-(1-(4-(Difiuoromethyl)-3-fluorophenyl)ethyl)-6-(dimethylamino)-3-(fluoromethyl)-1H-pyrazolo[3,4-d]pyrimidin-4(5H)-one]
1.8	CSc1nc2c(c(CO)nn2[C@@H](C)c2ccc(C(F)(F)F)cc2)c(=O)[nH]1 [Example 301, (S)-3-(Hydroxymethyl)-6-(methylthio)-1-(1-(4-(trifluoromethyl)phenyl)ethyl)-1H-pyrazolo[3,4-d]pyrimidin-4(5H)-one]

SMILES	Ki [nM]
CC1CN(c2nc3c(c(CO)nn3[C@@H](C)c3ccc(C(F)(F)F)cc3)c(=O)[nH]2)C1 [Example 160, 3-(Hydroxymethyl)-6-(3-methylazetidin-1-yl)-1-{(1S)-1-[4-(trifluoromethyl)phenyl]ethyl}-1,5-dihydro-4H-pyrazolo[3,4-d]pyrimidin-4-one]	1.6
C[C@@H](c1ccc(C(F)(F)F)cc1)n1nc(CO)c2c(=O)[nH]c(N3CCC3)nc21 [Example 158, (S)-6-(Azetidin-1-yl)-3-(hydroxymethyl)-1-(1-(4-(trifluoromethyl)phenyl)ethyl)-1,5-dihydro-4H-pyrazolo[3,4-d]pyrimidin-4-one]	0.89
